What was measured:
[1] = Stability test in acid aqueous solution (Solution 1 of the Japanese Pharmacopoeia, pH 1.2), remaining compound by HPLC; type: physicochemical; settings: Solution 1 (pH 1.2), 2 mg/ml, stirred at 37°C, HPLC
Method: In order to confirm the stability of the compounds of the present invention in an acid aqueous solution, stability was tested on the fumarate of 6-[3-[N-[2-(4-methanesulfonylaminophenyl)ethyl]-N-propylamino]propyl]-1,3-dimethyl-2,4(1H,3H)pyrimidinedione (the compound obtained in Example 118; hereinafter referred to as compound A) which is a compound in accordance with the present invention, and 1,3-dimethyl-6-{2-[N-ethyl-3-phenylpropylamino]ethylamino}2,4(1H,3H)-pyrimidinedione (hereinafter referred to as compound B) which is a pyrimidinedione derivative having a substituted amino group at the 6-position of the pyrimidinedione ring as described in European Publication No. 454,498 A2 and was used for purposes of comparison.
Solution 1 (pH 1.2) described in the Japaense Pharmacopoeia was prepared by adding 7.0 ml of hydrochloric acid and water to 2.0 g of sodium chloride so as to give the final volume of 1,000 ml.
Compounds A and B were dissolved in Solution 1 at a concentration of 2 mg/ml and the resulting solutions were stirred at 37°C. Thus, changes with time in the percentages of the remaining compounds A and B were examined by HPLC.

right Purkinje fiber = experiment: Effect on myocardial action potential duration (APD75) in isolated, perfused Purkinje fiber; type: cell-based, mongrel adult dog; settings: Canis lupus familiaris, 20 min, 20 minutes' incubation, field stimulus of 1 Hz, 37°C, read-out: T (%), percent prolongation of myocardial action potential duration (APD75)
Method: After a mongrel adult dog was anesthetized by the intravenous administration of 30 mg/kg of pentobarbital, the heart was excised therefrom. Then, the right Purkinje fiber was isolated in a nutrient fluid (i.e., Tyrode's solution). The isolated right Purkinje fiber was fixed in a constant-temperature bath (20 ml) at 37°C and perfused with Tyrode's solution. In this state, the myocardial action potential duration (APD75) was measured before and after the administration of each test compound. Then, the percent prolongation of myocardial action potential duration (T) after the administration of each test compound was calculated according to the following equation. T(%) =(B - A)/(A)x 100 [formula] where A: APD75 before administration B: APD75 after administration
APD75 was measured as follows: A field stimulus of 1 Hz was given to the right Purkinje fiber, and any change in action potential was detected by a glass microelectrode (10-20 MΩ) penetrated into a Purkinje fiber and monitored on an oscilloscope via an amplifier. The waveform on the oscilloscope was analyzed by means of a computer, and the duration beween the point of action potential generation adn the point of 75% repolarization was defined as APD75. The test compounds shown in Table 2 were separately added to the perfusing nutrient fluid, and after 20 minutes' incubation was recorded. This test was carried out according to the method of Sato et al. [S. Sato, K. Hashimoto; Arzneimittel Forschung, 34(1), 3a, 376-380(1984)].

ventricular muscle = experiment: Effect on ventricular muscle refractory period (ERP) under ventricular pacing in anesthetized dog; type: in vivo, mongrel adult dog; settings: ventricular pacing at 400 msec
Method: According to the method described below, the refractory period was measured before and after the intravenous administration of each test compound, and the percent prolongation of refractory period (ERP) was calculated according to the following equation. ERP prolongation (%) =(W - Y)/(Y)x 100 [formula] where W: Refractory period after administration Y: Refractory period before administration
After a mongrel adult dog was anesthetized by the intravenous (i.v.) administration of 30 mg/kg of pentobarbital, the chest was opened on the right side. Then, a set of silver-silver chloride electrodes spaced by 3 mm was sewn on the right ventricle, and […] electrical stimuli (a duration of 4 msec, and a current intensity equal to twice the threshold) were given at an interval of 400 msec. Thereafter, a small amount of alcohol was injected into a sinus artery in order to destroy the pacemaker activity, and the ventricular refractory period (ERP) was measured under ventricular pacing. Specifically, one train comprised a series of stimuli having an interval of 400 msec, and the interval between trains was usually 400 msec. During measurement of the refractory period, this interval was shortened by decrements of 10 msec, and the interval between trains at which the response to the first stimulus of the train disappeared was regarded as the refractory period. These electrical stimuli were given by programmed stimulation using a heart stimulation apparatus (Diamedical Co., Ltd.; DHM-226-3).

[2] = Toxicity test (mortality rate 24 hours after administration); settings: mouse, in vivo, ip; 100 mg/kg (i.p.); twenty-four hours after administration; groups of three mice
Method: The test compounds were separately administered to mice (ddy strain, male). The administration of each compound was carried out intraperitoneally (i.p.) in a dose of 100 mg/kg. Twenty-four hours after the administration, the mortality rate of the mice (in groups of three) was examined.

Question: Which results are given for `CCCN(CCCc1cc(=O)n(C)c(=O)n1C)CCc1ccc(NS(C)(=O)=O)cc1` [Example 118, 6-[3-[N-[2-(4-methanesulfonylaminophenyl)ethyl]-N-propylamino]propyl]-1,3-dimethyl-2,4(1H,3H)pyrimidinedione]?
Answer: Percentage of remaining compound ([1]; 0 hr): 100%; remaining at 3 h ([1]; jp solution 1, 3 hr, read-out: Percentage of remaining compound): 100%; remaining at 6 h ([1]; jp solution 1, 6 hr, read-out: Percentage of remaining compound): 99%; activation at 1 µM (right Purkinje fiber; Dose 1 x 10^-6 M): 16%; activation at 10 µM (right Purkinje fiber; Dose 10 x 10^-6 M): 54%; activation at 100 µM (right Purkinje fiber; Dose 100 x 10^-6 M): 81%; ERP (%), percent prolongation of refractory period (ventricular muscle; Dose 0.1 mg/kg i.v.): 6.7%; ERP (%), percent prolongation of refractory period (ventricular muscle; Dose 0.3 mg/kg i.v.): 20.0%; ERP (%), percent prolongation of refractory period (ventricular muscle; Dose 1.0 mg/kg i.v.): 33.3%; mortality at 24 h [2]: 0%
